These results are taken from publication PMC4457528, “Identification of Novel Small Molecule Inhibitors of Oncogenic RET Kinase” (PLoS ONE, 2015).

Holding throughout (assay): KinomeScan kinase panel, single concentration 10 µM
Assay type in all cases: binding

Experiment [1] addresses T1, KinomeScan kinase panel (Homo sapiens, UniProt P22455).
T1 construct: purchased DiscoveRx (KinomeScan)
Particulars: FGFR4, 10 µM; read-out: score (%).

Experiment [2] has as its target T2, KinomeScan kinase panel (Homo sapiens, UniProt Q15418).
T2 construct: purchased DiscoveRx (KinomeScan)
Particulars: 10 µM, read-out: score (%).

The target in experiment [3] is T3, KinomeScan kinase panel (Homo sapiens, UniProt Q13976).
T3 construct: purchased DiscoveRx (KinomeScan)
T3 sequence (Q13976 1-671): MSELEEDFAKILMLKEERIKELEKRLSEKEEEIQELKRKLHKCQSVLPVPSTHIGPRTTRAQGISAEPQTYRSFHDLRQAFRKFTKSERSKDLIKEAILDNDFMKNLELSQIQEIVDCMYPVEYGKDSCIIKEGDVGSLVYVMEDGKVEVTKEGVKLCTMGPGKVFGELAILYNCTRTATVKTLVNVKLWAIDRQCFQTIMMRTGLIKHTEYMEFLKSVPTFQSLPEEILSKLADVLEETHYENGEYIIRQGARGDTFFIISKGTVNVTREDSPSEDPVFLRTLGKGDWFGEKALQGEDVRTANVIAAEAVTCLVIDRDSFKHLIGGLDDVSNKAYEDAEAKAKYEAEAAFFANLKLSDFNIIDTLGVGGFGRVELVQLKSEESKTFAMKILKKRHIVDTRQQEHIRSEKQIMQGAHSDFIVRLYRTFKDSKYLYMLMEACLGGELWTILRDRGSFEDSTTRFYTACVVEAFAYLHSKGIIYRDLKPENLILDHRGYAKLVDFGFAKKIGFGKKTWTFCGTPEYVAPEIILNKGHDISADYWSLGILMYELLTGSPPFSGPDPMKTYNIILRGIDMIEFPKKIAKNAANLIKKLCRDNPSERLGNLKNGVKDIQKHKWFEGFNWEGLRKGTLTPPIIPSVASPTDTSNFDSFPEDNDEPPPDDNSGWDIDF
Conditions: read-out: score (%).

Experiment [4] addresses T4, KinomeScan kinase panel (Homo sapiens, UniProt Q16288).
T4 construct: purchased DiscoveRx (KinomeScan)
Conditions: 10 µM, read-out: score (%).

The target in experiment [5] is T5, KinomeScan kinase panel (Homo sapiens, UniProt Q9UQ88).
T5 construct: purchased DiscoveRx (KinomeScan)
T5 sequence (Q9UQ88 1-783): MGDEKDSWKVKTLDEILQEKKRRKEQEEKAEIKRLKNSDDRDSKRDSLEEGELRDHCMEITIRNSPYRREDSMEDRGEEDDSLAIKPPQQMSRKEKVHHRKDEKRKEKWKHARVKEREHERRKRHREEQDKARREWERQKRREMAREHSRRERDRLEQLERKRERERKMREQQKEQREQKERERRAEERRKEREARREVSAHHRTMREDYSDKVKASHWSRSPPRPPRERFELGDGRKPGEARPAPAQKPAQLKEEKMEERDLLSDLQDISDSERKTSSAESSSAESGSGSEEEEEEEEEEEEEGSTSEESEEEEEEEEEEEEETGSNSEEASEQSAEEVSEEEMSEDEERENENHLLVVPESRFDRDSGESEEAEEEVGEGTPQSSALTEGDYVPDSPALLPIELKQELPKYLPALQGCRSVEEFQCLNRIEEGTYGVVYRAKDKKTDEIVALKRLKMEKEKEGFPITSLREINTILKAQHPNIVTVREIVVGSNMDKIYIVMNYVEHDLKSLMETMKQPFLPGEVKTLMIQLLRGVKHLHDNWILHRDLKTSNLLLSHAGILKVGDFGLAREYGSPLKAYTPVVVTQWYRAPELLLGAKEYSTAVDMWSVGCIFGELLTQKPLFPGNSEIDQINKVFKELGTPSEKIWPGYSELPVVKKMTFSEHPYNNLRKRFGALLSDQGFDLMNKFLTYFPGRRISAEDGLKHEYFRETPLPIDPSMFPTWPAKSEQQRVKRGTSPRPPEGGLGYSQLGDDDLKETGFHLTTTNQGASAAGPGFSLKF
Particulars: CDC2L2, 10 µM; read-out: score (%).

Experiment [6] has as its target T6, KinomeScan kinase panel (Homo sapiens, UniProt P15056, V600E).
T6 construct: purchased DiscoveRx (KinomeScan)
Conditions: BRAF(V600E), 10 µM; read-out: score (%).

Experiment [7] has as its target T7, KinomeScan kinase panel (Homo sapiens, UniProt P45985).
T7 construct: purchased DiscoveRx (KinomeScan)
T7 sequence (P45985 1-399): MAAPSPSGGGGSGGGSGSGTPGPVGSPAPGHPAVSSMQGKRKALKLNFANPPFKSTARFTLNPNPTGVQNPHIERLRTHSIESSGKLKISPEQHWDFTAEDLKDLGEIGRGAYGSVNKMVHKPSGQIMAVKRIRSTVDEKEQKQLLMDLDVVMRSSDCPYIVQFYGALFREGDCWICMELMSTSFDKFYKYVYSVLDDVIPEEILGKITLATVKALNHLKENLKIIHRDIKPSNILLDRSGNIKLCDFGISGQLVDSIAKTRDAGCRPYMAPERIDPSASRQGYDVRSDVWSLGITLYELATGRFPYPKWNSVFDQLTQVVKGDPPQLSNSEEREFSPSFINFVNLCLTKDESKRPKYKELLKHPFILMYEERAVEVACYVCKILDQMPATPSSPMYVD
Conditions: MEK4, 10 µM; read-out: score (%).

Experiment [8] has as its target T8, KinomeScan kinase panel (Homo sapiens, UniProt P16591).
T8 construct: purchased DiscoveRx (KinomeScan)
Conditions: FER, 10 µM; read-out: score (%).

For experiment [9], the target named is T9, KinomeScan kinase panel (Homo sapiens, UniProt P54646).
T9 construct: purchased DiscoveRx (KinomeScan)
T9 sequence (P54646 whole entry): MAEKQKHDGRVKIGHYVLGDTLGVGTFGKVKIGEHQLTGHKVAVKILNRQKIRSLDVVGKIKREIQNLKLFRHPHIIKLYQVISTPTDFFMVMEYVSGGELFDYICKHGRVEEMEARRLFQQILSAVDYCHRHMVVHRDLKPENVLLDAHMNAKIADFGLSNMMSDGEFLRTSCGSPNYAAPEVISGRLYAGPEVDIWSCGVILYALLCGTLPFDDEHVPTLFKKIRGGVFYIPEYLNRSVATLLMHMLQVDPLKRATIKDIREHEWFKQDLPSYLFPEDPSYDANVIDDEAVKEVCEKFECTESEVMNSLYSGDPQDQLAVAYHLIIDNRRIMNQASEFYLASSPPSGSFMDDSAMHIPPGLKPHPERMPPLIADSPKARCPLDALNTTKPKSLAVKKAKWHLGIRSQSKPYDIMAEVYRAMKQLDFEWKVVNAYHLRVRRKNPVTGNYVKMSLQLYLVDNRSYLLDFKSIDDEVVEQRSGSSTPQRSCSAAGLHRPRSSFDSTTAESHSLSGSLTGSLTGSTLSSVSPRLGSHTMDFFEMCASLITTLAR
Particulars: AMPK-alpha2, 10 µM; read-out: score (%).

Read-outs that look alike come from different tables or passages of the source. Where only a bound is given, the exact number is not on record here.

T6 sequence (P15056 whole entry V600E): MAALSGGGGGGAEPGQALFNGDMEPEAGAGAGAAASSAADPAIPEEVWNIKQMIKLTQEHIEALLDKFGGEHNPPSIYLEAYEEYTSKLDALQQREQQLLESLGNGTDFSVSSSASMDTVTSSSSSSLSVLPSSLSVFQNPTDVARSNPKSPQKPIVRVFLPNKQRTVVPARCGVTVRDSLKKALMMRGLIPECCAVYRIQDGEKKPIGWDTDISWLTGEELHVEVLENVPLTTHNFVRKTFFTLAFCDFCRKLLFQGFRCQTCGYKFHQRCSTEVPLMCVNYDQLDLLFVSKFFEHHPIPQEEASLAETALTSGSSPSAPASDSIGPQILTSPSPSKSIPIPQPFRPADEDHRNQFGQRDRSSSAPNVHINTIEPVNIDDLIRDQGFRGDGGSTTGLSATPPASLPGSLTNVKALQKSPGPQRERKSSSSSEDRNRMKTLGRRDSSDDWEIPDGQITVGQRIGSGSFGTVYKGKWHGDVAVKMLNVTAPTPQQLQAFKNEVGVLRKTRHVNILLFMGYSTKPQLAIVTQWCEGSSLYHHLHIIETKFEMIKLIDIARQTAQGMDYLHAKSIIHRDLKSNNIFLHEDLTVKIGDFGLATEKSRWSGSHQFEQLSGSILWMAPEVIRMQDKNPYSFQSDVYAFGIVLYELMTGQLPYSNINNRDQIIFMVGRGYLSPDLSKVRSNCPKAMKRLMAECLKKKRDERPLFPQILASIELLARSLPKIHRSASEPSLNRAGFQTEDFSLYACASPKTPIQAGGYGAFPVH
T8 sequence (P16591 whole entry): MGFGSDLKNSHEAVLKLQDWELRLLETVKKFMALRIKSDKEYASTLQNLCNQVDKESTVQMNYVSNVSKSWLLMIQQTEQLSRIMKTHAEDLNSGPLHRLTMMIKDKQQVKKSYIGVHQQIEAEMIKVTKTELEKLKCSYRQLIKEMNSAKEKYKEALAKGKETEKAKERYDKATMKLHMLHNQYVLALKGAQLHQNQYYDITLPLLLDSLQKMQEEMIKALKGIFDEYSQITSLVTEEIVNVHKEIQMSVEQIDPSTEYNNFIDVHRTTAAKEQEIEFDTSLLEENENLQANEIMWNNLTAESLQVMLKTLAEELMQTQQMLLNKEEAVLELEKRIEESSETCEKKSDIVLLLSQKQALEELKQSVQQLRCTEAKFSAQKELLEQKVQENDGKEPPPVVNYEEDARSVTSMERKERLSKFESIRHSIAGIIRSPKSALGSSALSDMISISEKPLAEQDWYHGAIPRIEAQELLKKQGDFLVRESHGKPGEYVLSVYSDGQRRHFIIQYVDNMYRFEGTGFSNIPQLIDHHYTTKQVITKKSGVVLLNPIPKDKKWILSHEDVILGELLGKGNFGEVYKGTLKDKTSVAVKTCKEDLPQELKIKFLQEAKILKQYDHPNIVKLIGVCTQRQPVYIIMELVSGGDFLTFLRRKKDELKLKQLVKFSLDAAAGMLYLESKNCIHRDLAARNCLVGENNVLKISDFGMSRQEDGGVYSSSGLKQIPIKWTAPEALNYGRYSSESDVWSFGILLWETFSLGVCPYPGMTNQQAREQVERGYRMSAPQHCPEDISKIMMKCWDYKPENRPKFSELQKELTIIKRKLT
T4 sequence (Q16288 32-839): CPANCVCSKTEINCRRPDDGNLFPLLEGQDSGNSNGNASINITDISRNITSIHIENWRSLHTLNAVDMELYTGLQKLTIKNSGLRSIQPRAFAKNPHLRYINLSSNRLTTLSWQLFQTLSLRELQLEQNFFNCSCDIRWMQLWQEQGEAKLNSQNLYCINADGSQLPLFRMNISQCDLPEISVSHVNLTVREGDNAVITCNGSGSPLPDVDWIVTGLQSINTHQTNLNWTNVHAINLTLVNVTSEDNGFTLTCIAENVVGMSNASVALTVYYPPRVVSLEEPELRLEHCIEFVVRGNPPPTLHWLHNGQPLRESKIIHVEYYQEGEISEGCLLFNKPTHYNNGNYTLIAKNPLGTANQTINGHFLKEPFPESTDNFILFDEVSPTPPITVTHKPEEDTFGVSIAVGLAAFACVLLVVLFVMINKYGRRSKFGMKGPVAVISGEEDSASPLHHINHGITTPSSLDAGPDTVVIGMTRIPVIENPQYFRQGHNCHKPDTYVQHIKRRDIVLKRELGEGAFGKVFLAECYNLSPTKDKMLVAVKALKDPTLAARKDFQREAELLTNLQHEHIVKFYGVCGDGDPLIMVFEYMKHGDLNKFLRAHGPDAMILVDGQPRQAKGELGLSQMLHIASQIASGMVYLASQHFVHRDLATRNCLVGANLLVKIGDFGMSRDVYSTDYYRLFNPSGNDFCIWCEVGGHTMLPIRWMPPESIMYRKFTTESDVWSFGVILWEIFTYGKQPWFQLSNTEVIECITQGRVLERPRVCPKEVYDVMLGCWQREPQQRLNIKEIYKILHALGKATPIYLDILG
T1 sequence (P22455 22-802): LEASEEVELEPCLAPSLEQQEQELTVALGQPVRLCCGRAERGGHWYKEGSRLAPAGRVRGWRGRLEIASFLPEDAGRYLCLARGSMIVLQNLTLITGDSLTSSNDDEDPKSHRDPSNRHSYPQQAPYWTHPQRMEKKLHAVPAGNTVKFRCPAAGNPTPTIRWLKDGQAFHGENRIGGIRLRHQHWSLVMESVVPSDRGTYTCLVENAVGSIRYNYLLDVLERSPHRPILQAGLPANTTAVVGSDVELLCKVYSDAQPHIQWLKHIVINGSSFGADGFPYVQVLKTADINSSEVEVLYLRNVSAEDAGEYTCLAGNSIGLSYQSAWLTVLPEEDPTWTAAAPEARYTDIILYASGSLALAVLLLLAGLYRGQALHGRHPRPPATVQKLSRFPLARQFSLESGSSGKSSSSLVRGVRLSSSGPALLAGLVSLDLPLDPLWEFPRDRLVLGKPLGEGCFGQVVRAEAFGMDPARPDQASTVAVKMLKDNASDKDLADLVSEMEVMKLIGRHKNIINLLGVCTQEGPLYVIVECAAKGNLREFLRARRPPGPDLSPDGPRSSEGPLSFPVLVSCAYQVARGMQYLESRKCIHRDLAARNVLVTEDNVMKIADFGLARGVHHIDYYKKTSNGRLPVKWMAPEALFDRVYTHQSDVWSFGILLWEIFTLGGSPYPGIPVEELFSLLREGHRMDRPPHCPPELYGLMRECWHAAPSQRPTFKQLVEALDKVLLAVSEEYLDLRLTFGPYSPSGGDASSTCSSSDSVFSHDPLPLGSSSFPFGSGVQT
T2 sequence (Q15418 whole entry): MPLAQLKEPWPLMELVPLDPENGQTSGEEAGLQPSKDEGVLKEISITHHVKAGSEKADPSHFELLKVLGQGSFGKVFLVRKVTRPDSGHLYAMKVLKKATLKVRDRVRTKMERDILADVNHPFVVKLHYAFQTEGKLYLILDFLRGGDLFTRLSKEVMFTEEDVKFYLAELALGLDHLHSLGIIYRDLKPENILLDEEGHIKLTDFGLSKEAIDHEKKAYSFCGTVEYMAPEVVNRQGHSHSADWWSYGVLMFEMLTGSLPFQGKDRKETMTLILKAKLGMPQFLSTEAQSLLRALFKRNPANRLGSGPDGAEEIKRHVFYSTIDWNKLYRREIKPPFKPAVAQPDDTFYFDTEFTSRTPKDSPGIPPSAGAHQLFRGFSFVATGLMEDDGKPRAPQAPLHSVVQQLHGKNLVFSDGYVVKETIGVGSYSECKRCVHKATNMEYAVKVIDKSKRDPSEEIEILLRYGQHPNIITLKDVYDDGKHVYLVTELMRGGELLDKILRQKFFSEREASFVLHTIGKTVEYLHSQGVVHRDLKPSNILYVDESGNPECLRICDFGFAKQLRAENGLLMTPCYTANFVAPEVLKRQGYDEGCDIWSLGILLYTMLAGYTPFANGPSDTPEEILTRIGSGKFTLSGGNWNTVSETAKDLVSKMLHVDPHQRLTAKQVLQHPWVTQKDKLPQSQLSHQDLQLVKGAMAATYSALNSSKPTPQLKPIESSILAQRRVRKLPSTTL

Take `CCN1CCN(Cc2ccc(NC(=O)c3ccc(C)c(NC(=O)c4cncc(-c5cccs5)c4)c3)cc2C(F)(F)F)CC1` [ALW-II-41-27]: the remaining binding at 10 µM was 8.7% in [1]; above 30% in experiment [2] (RPS6KA1(Kin.Dom.1-N-terminal)); above 30% in experiment [2] (RPS6KA1(Kin.Dom.2-C-terminal)); above 30% in experiment [3] (PRKG1, 10 µM); 0.85% in [4] (kinase TRKC); 1.8% in experiment [5]. For the same compound, the remaining binding at 10 µM in [6] was 0.55%; in [7] it was above 30%; in experiment [8], 5.6%; in experiment [9] it was above 30%.

On to `CCN1CCN(Cc2ccc(NC(=O)c3ccc(C)c(/C=C/c4cnc5[nH]ccc5c4Cl)c3)cc2C(F)(F)F)CC1` [HG-6-63-01, (E)-3-(2-(4-chloro-1H-pyrrolo[2,3-b]pyridin-5-yl)vinyl)-N-(4-((4-ethylpiperazin-1-yl)methyl)-3-(trifluoromethyl)phenyl)-4-methylbenzamide], for which the remaining binding at 10 µM in [1] was 0.2%; in [2] (RPS6KA1(Kin.Dom.1)), above 30%; in [2] (RPS6KA1(Kin.Dom.2)), above 30%; in experiment [3] (PRKG1, 10 µM), above 30%; in experiment [4] (TRKC), 5.3%; in [5], 17%. In addition, the remaining binding at 10 µM was 0.2% in experiment [6], above 30% in [7], 14% in experiment [8] and above 30% in [9].

For the compound `CCN1CCN(Cc2ccc(NC(=O)c3ccc(C)c(C#Cc4cccnc4)c3)cc2C(F)(F)F)CC1` [XMD15-44], the remaining binding at 10 µM is 0% in experiment [1]; 53% in experiment [2] (kinase RSK1(Kin.Dom.1-N-terminal)); 7.2% in experiment [2] (kinase RSK1(Kin.Dom.2-C-terminal)); 100% in experiment [3] (kinase PRKG1, 10 µM); 0.35% in experiment [4] (kinase TRKC); 1.6% in experiment [5]. In addition, the remaining binding at 10 µM in experiment [6] was 0.05%; in experiment [7], above 30%; in [8], 11%; in experiment [9], 18%.
